Converted amounts (≈) assume the structure as drawn. The source made the active and inactive calls.
Key:
Staphylococcus aureus [1] = test: Inhibition of FabB/FabF in methicillin-sensitive Staphylococcus aureus assessed as antibacterial activity after 16 hrs by agar dilution method
Staphylococcus aureus [2] = test: Inhibition of FabB/FabF in methicillin-resistant Staphylococcus aureus assessed as antibacterial activity at 5 ug/disk after 18 hrs by agar disk diffusion method
Staphylococcus aureus [3] = test: Inhibition of FabB/FabF in methicillin-resistant Staphylococcus aureus assessed as antibacterial activity after 16 hrs by agar dilution method
Staphylococcus aureus [4] = test: Inhibition of FabB/FabF in Staphylococcus aureus ATCC 29213 assessed as antibacterial activity after 16 hrs by agar dilution method
Staphylococcus aureus [5] = test: Antibacterial activity against methicillin-resistant Staphylococcus aureus infected in C57BL/6J mouse model of peritonitis assessed as mouse survival at 20 mg/kg, ip dosed at 1 hr and 5 hrs post infection and measured for 7 days relative to control; assay type: functional
Staphylococcus aureus [6] = test: Antibacterial activity against methicillin-resistant Staphylococcus aureus infected in C57BL/6J mouse model of peritonitis assessed as mouse survival at 10 mg/kg, ip dosed at 1 hr and 5 hrs post infection and measured for 7 days relative to control; assay type: functional
Staphylococcus aureus [7] = test: Inhibition of FabB/FabF in methicillin-resistant Staphylococcus aureus assessed as antibacterial activity at 2 ug/disk after 18 hrs by agar disk diffusion method
Staphylococcus aureus [8] = test: Antibacterial activity against methicillin-resistant Staphylococcus aureus infected in BALB/c mouse model of skin wound assessed as reduction in appearance of secondary scald at 2 mg administered topically as ointment twice daily for 7 days and measured after 24 hrs by visual inspection method; assay type: functional, organism-based
Staphylococcus aureus [9] = test: Antibacterial activity against methicillin-resistant Staphylococcus aureus infected in BALB/c mouse model of skin wound assessed as retainment of fat layers at 2 mg administered topically as ointment twice daily for 7 days and measured after 24 hrs by HE staining analysis; assay type: functional, organism-based
Staphylococcus aureus [10] = test: Antibacterial activity against methicillin-resistant Staphylococcus aureus infected in BALB/c mouse model of skin infection assessed as bacterial load in skin lesions at 2 mg administered topically as ointment twice daily for 7 days and measured at 24 hrs post last dose (7.9 +/- 0.9 x 10^8 CFU/g); assay type: functional
Staphylococcus aureus [11] = test: Antibacterial activity against methicillin-resistant Staphylococcus aureus infected in BALB/c mouse model of skin wound assessed as reduction in detachment of epidermis from dermis at 2 mg administered topically as ointment twice daily for 7 days and measured after 24 hrs by visual inspection method; assay type: functional, organism-based
Staphylococcus aureus [12] = test: Antibacterial activity against methicillin-resistant Staphylococcus aureus infected in BALB/c mouse model of skin wound assessed as retainment of dermis layers at 2 mg administered topically as ointment twice daily for 7 days and measured and after 24 hrs by HE staining analysis; assay type: functional, organism-based

Structure (SMILES) | MIC (Staphylococcus aureus [1]) [µg/mL] | antibacterial activity (disk diffusion, qualitative) (Staphylococcus aureus [2]) | MIC (Staphylococcus aureus [3]) [µg/mL] | MIC (Staphylococcus aureus [4]) [µg/mL] | further results
C[C@]12C[C@@]34C=C(Sc5cccc(C#CC6(O)CCCCC6)c5)C(=O)[C@@](C)(CCC(=O)Nc5c(O)ccc(C(=O)O)c5O)[C@@H]3[C@H](C[C@@H]1C4)O2 | 0.25 (≈ 0.372 µM) | Active | 0.25 (≈ 0.372 µM) | 0.25 (≈ 0.372 µM) | 
C[C@]12C[C@@]34C=C(Sc5ccc(I)cc5)C(=O)[C@@](C)(CCC(=O)Nc5c(O)ccc(C(=O)O)c5O)[C@@H]3[C@H](C[C@@H]1C4)O2 | 0.25 (≈ 0.37 µM) | Active | 0.25 (≈ 0.37 µM) | 0.5 (≈ 0.74 µM) | 
Cc1ccc(SC2=C[C@]34C[C@H]5C[C@H](O[C@@]5(C)C3)[C@H]4[C@](C)(CCC(=O)Nc3c(O)ccc(C(=O)O)c3O)C2=O)cc1 | 0.25 (≈ 0.444 µM) | Active | 0.25 (≈ 0.444 µM) | 0.5 (≈ 0.887 µM) | survival at 20 mg/kg (Staphylococcus aureus [5]): 80%; survival at 10 mg/kg (Staphylococcus aureus [6]): > 60%; inhibition (Staphylococcus aureus [7]): Active
CC(=O)NC[C@H]1CN(c2ccc(N3CCOCC3)c(F)c2)C(=O)O1 | 1 (≈ 2.96 µM) | Active | 1 (≈ 2.96 µM) | 1 (≈ 2.96 µM) | 
C[C@]12C[C@@]34C=C(Sc5ccc(F)cc5)C(=O)[C@@](C)(CCC(=O)Nc5c(O)ccc(C(=O)O)c5O)[C@@H]3[C@H](C[C@@H]1C4)O2 | 0.5 (≈ 0.881 µM) | Active | 0.5 (≈ 0.881 µM) | 1 (≈ 1.76 µM) | 
C[C@]12C[C@]34C[C@H]1C[C@H](O2)[C@H]3[C@](C)(CCC(=O)Nc1c(O)ccc(C(=O)O)c1O)C(=O)[C@@H]1O[C@@H]14 | 16 (≈ 35 µM) |  | 16 (≈ 35 µM) | 32 (≈ 69.9 µM) | 
C[C@]12C[C@@]34C=C(SCc5ccccc5)C(=O)[C@@](C)(CCC(=O)Nc5c(O)ccc(C(=O)O)c5O)[C@@H]3[C@H](C[C@@H]1C4)O2 | 0.5 (≈ 0.887 µM) | Active | 0.5 (≈ 0.887 µM) | 0.5 (≈ 0.887 µM) | survival at 20 mg/kg (Staphylococcus aureus [5]): 80%; survival at 10 mg/kg (Staphylococcus aureus [6]): > 60%
C[C@]12C[C@@]34C=C(Sc5cccc(C#Cc6ccccn6)c5)C(=O)[C@@](C)(CCC(=O)Nc5c(O)ccc(C(=O)O)c5O)[C@@H]3[C@H](C[C@@H]1C4)O2 | 0.5 (≈ 0.768 µM) | Active | 0.5 (≈ 0.768 µM) | 0.5 (≈ 0.768 µM) | 
CC(C)(C)C#Cc1cccc(SC2=C[C@]34C[C@H]5C[C@H](O[C@@]5(C)C3)[C@H]4[C@](C)(CCC(=O)Nc3c(O)ccc(C(=O)O)c3O)C2=O)c1 |  | Active |  |  | 
COc1ccc(SC2=C[C@]34C[C@H]5C[C@H](O[C@@]5(C)C3)[C@H]4[C@](C)(CCC(=O)Nc3c(O)ccc(C(=O)O)c3O)C2=O)cc1 |  | Active |  |  | 
Cc1ccc(SC2=C[C@]34C[C@H]5C[C@H](O[C@@]5(C)C3)[C@H]4[C@](C)(CCC(=O)Nc3c(O)ccc(C(=O)O)c3O)C2=O)c(C)c1 |  | Active |  |  | 
CCCCCC#Cc1cccc(SC2=C[C@]34C[C@H]5C[C@H](O[C@@]5(C)C3)[C@H]4[C@](C)(CCC(=O)Nc3c(O)ccc(C(=O)O)c3O)C2=O)c1 |  | Active |  |  | 
CC(C)(C)SC1=C[C@]23C[C@H]4C[C@H](O[C@@]4(C)C2)[C@H]3[C@](C)(CCC(=O)Nc2c(O)ccc(C(=O)O)c2O)C1=O |  | Active |  |  | 
C/C(=C\C(=O)OCCCCCCCCC(=O)O)C[C@@H]1OC[C@H](C[C@@H]2O[C@H]2[C@@H](C)[C@H](C)O)[C@@H](O)[C@H]1O [MUPIROCIN] |  |  |  |  | Activity (Staphylococcus aureus [8]): Active; Activity (Staphylococcus aureus [9]): Active; Activity (Staphylococcus aureus [10]): 6.5 ×10⁶ CFU/g; Activity (Staphylococcus aureus [11]): Active; Activity (Staphylococcus aureus [12]): Active
C[C@]12C[C@@]34C=C(Sc5ccccn5)C(=O)[C@@](C)(CCC(=O)Nc5c(O)ccc(C(=O)O)c5O)[C@@H]3[C@H](C[C@@H]1C4)O2 | 2 (≈ 3.63 µM) | Active | 2 (≈ 3.63 µM) | 2 (≈ 3.63 µM) | Survival (Staphylococcus aureus [6]): inactive
C[C@]12C[C@@]34C=C(Sc5cccc(/C=C/C(=O)OCCO)c5)C(=O)[C@@](C)(CCC(=O)Nc5c(O)ccc(C(=O)O)c5O)[C@@H]3[C@H](C[C@@H]1C4)O2 |  | Active |  |  | 
C[C@]12C[C@@]34C=C(Sc5cccc(-c6ccccc6)c5)C(=O)[C@@](C)(CCC(=O)Nc5c(O)ccc(C(=O)O)c5O)[C@@H]3[C@H](C[C@@H]1C4)O2 |  | Active |  |  | 
CCCSC1=C[C@]23C[C@H]4C[C@H](O[C@@]4(C)C2)[C@H]3[C@](C)(CCC(=O)Nc2c(O)ccc(C(=O)O)c2O)C1=O | 0.5 (≈ 0.97 µM) | Active | 0.5 (≈ 0.97 µM) | 1 (≈ 1.94 µM) | 
C[C@]12C[C@@]34C=C(Sc5ccc(C#CC6CC6)cc5)C(=O)[C@@](C)(CCC(=O)Nc5c(O)ccc(C(=O)O)c5O)[C@@H]3[C@H](C[C@@H]1C4)O2 |  | Active |  |  | 
C=CCSC1=C[C@]23C[C@H]4C[C@H](O[C@@]4(C)C2)[C@H]3[C@](C)(CCC(=O)Nc2c(O)ccc(C(=O)O)c2O)C1=O |  | Active |  |  | 
CCN(CC)CC#Cc1cccc(SC2=C[C@]34C[C@H]5C[C@H](O[C@@]5(C)C3)[C@H]4[C@](C)(CCC(=O)Nc3c(O)ccc(C(=O)O)c3O)C2=O)c1 |  | Active |  |  | 
COc1ccc(C#Cc2cccc(SC3=C[C@]45C[C@H]6C[C@H](O[C@@]6(C)C4)[C@H]5[C@](C)(CCC(=O)Nc4c(O)ccc(C(=O)O)c4O)C3=O)c2)cc1 |  | Active |  |  | 
C[C@]12C[C@@]34C=C(Sc5cccc(I)c5)C(=O)[C@@](C)(CCC(=O)Nc5c(O)ccc(C(=O)O)c5O)[C@@H]3[C@H](C[C@@H]1C4)O2 | 0.5 (≈ 0.74 µM) | Active | 0.5 (≈ 0.74 µM) | 1 (≈ 1.48 µM) | 
COC(=O)/C=C/c1cccc(SC2=C[C@]34C[C@H]5C[C@H](O[C@@]5(C)C3)[C@H]4[C@](C)(CCC(=O)Nc3c(O)ccc(C(=O)O)c3O)C2=O)c1 |  | Active |  |  | 
